Experimental data published in patent publication US20260199296A1, “AGENT FOR PREVENTING OR AMELIORATING ITCH” (KAO CORPORATION, priority 2022, published 2026).

Experiments:
[1] = target: T1, human C3a receptor (Homo sapiens, UniProt Q16581); assay: Ca2+-flux assay in HEK293 cells expressing human C3a receptor and GNA16; format: cell-based; conditions: ligands mouse TLQP-21 1 μM or human C3a recombinant protein 300 nM, Fluo-4, HEK293, FIG. 1
T1 construct: host or cells: HEK293
T1 sequence (Q16581 1-482): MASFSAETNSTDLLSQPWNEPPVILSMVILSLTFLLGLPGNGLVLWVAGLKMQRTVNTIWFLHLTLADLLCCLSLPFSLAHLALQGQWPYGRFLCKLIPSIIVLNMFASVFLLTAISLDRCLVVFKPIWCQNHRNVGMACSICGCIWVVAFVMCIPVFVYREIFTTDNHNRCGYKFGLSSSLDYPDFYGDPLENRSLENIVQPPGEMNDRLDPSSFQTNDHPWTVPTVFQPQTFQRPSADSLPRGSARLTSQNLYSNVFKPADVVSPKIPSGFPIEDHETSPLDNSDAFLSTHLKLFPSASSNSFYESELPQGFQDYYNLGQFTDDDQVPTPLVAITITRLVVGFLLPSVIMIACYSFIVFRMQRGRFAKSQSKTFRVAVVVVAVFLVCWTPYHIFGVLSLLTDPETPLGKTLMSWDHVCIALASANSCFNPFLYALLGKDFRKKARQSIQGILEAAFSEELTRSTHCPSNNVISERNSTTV
Excerpt: Mouse TLQP-21 (Tocris Bioscience, sequence: TLOPPASSRRRHFHHALPPAR, the same applies hereinafter) and human C3a recombinant protein (R&D systems) were used. The solvent was HBSS (Gibco).
The compound 1 (L-arginine, N2-[[5-(diphenylmethyl)-2-thienyl]carbonyl]) synthesized in accordance with a previous report (Rowley, J. A. et al. Journal of Medicinal Chemistry, 2020; 63 (2): 529-541) and ozanimod (Cayman Chemical) were used as C3a receptor antagonists. In the following evaluation, the compound 1 and ozanimod were dissolved in DMSO and diluted with HBSS as appropriate.
Human Embryonic Kidney cells 293 (HEK293) were used, into which the expression vectors necessary for evaluation were introduced according to the following. […]
The cells for evaluating C3a receptor response described above were seeded in a BioCoat (Registered Trademark) Poly-D-Lysine 96-well Black Flat Bottom Microplate (CORNING). […] After 15 minutes, C3a receptor ligand solution (mouse TLQP-21 solution or human C3a recombinant protein solution) was added for C3a receptor stimulation, and the Ca^2+ influx associated with the stimulation was measured over time as intracellular fluorescence intensity (Ex: 480 nm, Em: 540 nm). The value obtained by subtracting the measured value when HBSS was added instead of the C3a receptor ligand solution (blank) was used as the measured value. […]

[2] = system: AD model mice (NC/Nga); assay: Amelioration of pruritus in AD model mice by C3a receptor antagonist (mite allergen ointment-induced); format: in vivo, mouse; conditions: 0.5 mg/mL, 200 μL subcutaneously, three times a week; measured for 3 hours after last administration; FIG. 7
Procedure: Seven-week-old female NC/Nga mice were used. Preparation of AD model mice: The back of the neck was shaved, and 100 mg of an ointment containing mite allergen: Biostir AD (Biostir Inc.) was applied to the back of the neck and auricular region under isoflurane anesthesia for initial sensitization. Four days after the first application of the ointment containing mite allergen, 150 μL of 4% (w/v) SDS solution and 100 mg of ointment containing mite allergen were applied to the back of the neck and auricular region under isoflurane anesthesia. Thereafter, the same procedure was performed four times at a frequency of once every 3 to 4 days to induce AD-like dermatitis.
The compound 1, whose C3a receptor antagonism was confirmed in Example 1 above, was used as a C3a receptor antagonist. The compound 1 was dissolved in saline containing 20% polyethylene glycol 400, of which 200 μL was administered subcutaneously to the back of the neck. The control group was administered the same amount of only the above solvent. The concentration of the C3a receptor antagonist solution was set at 0.5 mg/mL. […]
Four days after the last application of the ointment containing mite allergen, the scratching behavior was measured for 3 hours after the last administration of the sample. […]

[3] = system: AEW model mice (C57BL/6J); assay: Amelioration of pruritus in AEW model mice by C3a receptor antagonist; format: in vivo, mouse; conditions: 0.5 mg/mL, 200 μL subcutaneously, once daily for 8 days; measured for 3 hours after last administration; FIG. 8
Excerpt: The animals used were male C57BL/6J mice. Preparation of AEW model: The back of the neck was shaved, and absorbent cotton soaked with a 1:1 (v/v) mixture of acetone and diethyl ether was applied and allowed to stand for 15 seconds. Immediately thereafter, absorbent cotton soaked with water was applied for 30 seconds. This treatment was repeated twice/day (morning and evening) for 7 days.
The compound 1, whose C3a receptor antagonism was confirmed in Example 1 above, was used as a C3a receptor antagonist. The compound 1 was dissolved in saline containing 20% polyethylene glycol 400, of which 200 μL was administered subcutaneously to the back of the neck. The control group was administered the same amount of only the above solvent. The concentration of the C3a receptor antagonist solution was set at 0.5 mg/mL. Sample administration started after the first AEW treatment and was performed at a frequency of once daily for 8 days.
Sixteen hours after the last AEW treatment, the scratching behavior was measured for 3 hours after the last administration of the sample. MicroAct (Neuroscience) was used to measure the scratching behavior.

[4] = system: ANIT model mice (C57BL/6J); assay: Amelioration of pruritus in model mice of pruritus associated with cholestasis (ANIT model) by ozanimod; format: in vivo, mouse; conditions: oral, 3 mg/mL suspension at 10 mL/kg; measurement time 22 hours; FIG. 10
Procedure: Shaved male C57BL/6J mice were used. To eight-week-old C57BL/6J mice, α-naphthyl isothiocyanate (ANIT) dissolved in olive oil (FUJIFILM Wako Pure Chemical) was orally administered once daily for 10 days with an oral gavage needle for mice and a disposable syringe. Before administration, body weight was measured to ensure administration at 25 mg/10 mL/kg (ANIT model).
(§1) Ozanimod (Selleck Biotech) was used. Carboxymethyl cellulose (Maruishi Pharmaceutical Co., Ltd.) prepared at 0.5% with water for injection was used as a solvent. The weighed ozanimod was lightly crushed using an agate pestle, and then the solvent dropwise addition and mixing were repeated to obtain a suspension (3 mg/mL). The preparation was done on the day of administration and stored at room temperature until administration.
The dosage (10 mL/kg) was calculated by measuring body weight, and the prepared evaluation samples were administered orally with an oral gavage needle for mice and a disposable syringe.
(§2) MicroAct (Neuroscience) was used to measure the scratching behavior. […] Measurements were made on the day before (before administration) and on the day of administration (after administration) of ozanimod, and the antipruritic effect of ozanimod was evaluated by comparing the number of scratching behaviors before and after administration.

[5] = system: AD model mice (NC/Nga); assay: Amelioration of pruritus in AD model mice by ozanimod (fur mite-parasitized NC/Nga); format: in vivo, mouse; conditions: oral, 3 mg/mL suspension at 10 ml/kg; measurement time 22 hours; FIG. 9
Procedure: NC/Nga mice were parasitized with mouse fur mites (M. musculi) to spontaneously generate dermatitis, and were used as an AD model. Fourteen-week-old males having developed dermatitis were used. After one week of acclimation, the back of their necks was shaved and their scratching behavior was measured. The mice were divided into two groups of eight mice each to ensure an equal number of scratching behaviors.
as §1
The dosage (10 ml/kg) was calculated by measuring body weight, and the prepared evaluation samples were administered orally with an oral gavage needle for mice and a disposable syringe.
as §2

Compound	fluorescence intensity due to C3a receptor stimulation by C3a receptor ligands (integrated value vs control = 100%) ([1]; compound at 1 μM)	scratching behavior compared to AD model mice administered with solvent alone [2]	scratching behavior compared to AEW model mice administered with solvent alone [3]	fluorescence intensity due to C3a receptor stimulation by C3a receptor ligands (integrated value vs control = 100%) ([1]; compound at 10 μM)	scratching behavior (events) after vs before administration [4]	scratching behavior (events) after vs before administration [5]
N=C(N)NCCC[C@H](NC(=O)c1ccc(C(c2ccccc2)c2ccccc2)s1)C(=O)O [compound 1, L-arginine, N2-[[5-(diphenylmethyl)-2-thienyl]carbonyl]]	suppressed	significant decrease	significant decrease	–	–	–
CC(C)Oc1ccc(-c2nc(-c3cccc4c3CCC4NCCO)no2)cc1C#N (stereo not drawn) [ozanimod, 5-[3-[1-(2-hydroxyethylamino)-2,3-dihydro-1H-inden-4-yl]-1,2,4-oxadiazol-5-yl]-2-isopropoxybenzonitrile]	–	–	–	suppressed	significant decrease	significant decrease
